Measurements as given in ChEMBL document CHEMBL5120867, “Hernandezine Regulates Proliferation and Autophagy-Induced Apoptosis in Melanoma Cells” (J Nat Prod, 2022).
Active and inactive are the calls of the source. No cut-off for these calls is given here.

Legend:
[1] = tested on: A-375; assay: Induction of cell cycle arrest in human A-375 cells assessed as accumulation at S phase at 6 uM incubated for 24 hrs by PI staining based flow cytometry analysis (reference value: 28.83 %); type: functional
[2] = tested on: A-375; assay: Induction of cell cycle arrest in human A-375 cells assessed as accumulation at G2/M phase incubated for 24 hrs in presence of AG490 inhibitor by PI staining based flow cytometry analysis (reference value: 8.87 %); type: functional
[3] = tested on: A-375; assay: Induction of autophagy in human A-375 cells assessed as increase in phosphorylated ACC at 7 uM incubated for 6 to 24 hrs by Western blotting analysis; type: functional, cell-based; conditions: time 6-24 hrs
[4] = tested on: B16; assay: Induction of cell cycle arrest in mouse B16 cells assessed as accumulation at G0/G1 phase at 5 uM incubated for 24 hrs by PI staining based flow cytometry analysis (reference value: 61.83 %); type: functional
[5] = tested on: A-375; assay: Upregulation of p27 accumulation in human A-375 cells at 6 to 8 uM measured after 12 to 24 hrs by western blot assay; type: functional, cell-based; conditions: dose 6-8 µM, time 12-24 hrs
[6] = tested on: B16; assay: Induction of cell cycle arrest in mouse B16 cells assessed as accumulation at S phase at 7 uM incubated for 24 hrs by PI staining based flow cytometry analysis (reference value: 33.46 %); type: functional
[7] = tested on: A-375; assay: Induction of apoptosis in human A-375 cells assessed as chromatin condensation at 6 to 8 uM incubated for 24 hrs by Hoechst 33258 staining based fluorescence microscopy; type: functional, cell-based; conditions: dose 6-8 µM
[8] = tested on: A-375; assay: Induction of cell cycle arrest in human A-375 cells assessed as accumulation at G2/M phase at 6 uM incubated for 24 hrs by PI staining based flow cytometry analysis (reference value: 1.48 %); type: functional
[9] = tested on: B16; assay: Induction of cell cycle arrest in mouse B16 cells assessed as accumulation at S phase at 6 uM incubated for 24 hrs by PI staining based flow cytometry analysis (reference value: 33.46 %); type: functional
[10] = tested on: A-375; assay: Induction of apoptosis in human A-375 cells assessed as early apoptotic cells at 8 uM after 24 hrs by Annexin-V-FITC/PI-staining based flow cytometry (reference value: 1.4 %); type: functional
[11] = tested on: B16; assay: Induction of apoptosis in mouse B16 cells assessed as nuclear membrane lysis at 5 to 7 uM incubated for 24 hrs by Hoechst 33258 staining based fluorescence microscopy; type: functional, cell-based; conditions: dose 5-7 µM
[12] = tested on: B16; assay: Inhibition of autophagy in mouse B16 cells harbouring mCherry-EGFP-LC3 assessed as increase in number of autophagosomes at 6 uM for 8 to 24 hrs by laser scanning confocal microscopic analysis; type: functional, cell-based; conditions: time 8-24 hrs
[13] = tested on: A-375; assay: Induction of cell cycle arrest in human A-375 cells assessed as accumulation at G0/G1 phase incubated for 24 hrs in presence of AG490 by PI staining based flow cytometry analysis (reference value: 56.69 %); type: functional
[14] = tested on: B16; assay: Induction of apoptosis in mouse B16 cells assessed as late apoptotic cells at 5 uM measured after 24 hrs by Annexin-V-FITC/PI-staining based flow cytometry (reference value: 4.4 %); type: functional
[15] = tested on: B16; assay: Induction of cell cycle arrest in mouse B16 cells assessed as accumulation at S phase incubated for 24 hrs by PI staining based flow cytometry analysis (reference value: 42.53 %); type: functional
[16] = tested on: A-375; assay: Induction of apoptosis in human A-375 cells assessed as late apoptotic cells preincubated for 2 hrs with 3-MA followed by compound addition and measured after 24 hrs by Annexin-V-FITC/PI-staining based flow cytometry (reference value: 5.7 %); type: functional
[17] = tested on: A-375; assay: Induction of apoptosis in human A-375 cells assessed as late apoptotic cells at 7 uM after 24 hrs by Annexin-V-FITC/PI-staining based flow cytometry (reference value: 5.7 %); type: functional
[18] = tested on: B16; assay: Induction of cell cycle arrest in mouse B16 cells assessed as accumulation at G0/G1 phase at 7 uM incubated for 24 hrs by PI staining based flow cytometry analysis (reference value: 61.83 %); type: functional
[19] = tested on: A-375; assay: Induction of autophagy in human A-375 cells assessed as increase in phosphorylated AMPK at 7 uM incubated for 6 to 24 hrs by Western blotting analysis; type: functional, cell-based; conditions: time 6-24 hrs
[20] = tested on: A-375; assay: Induction of cell cycle arrest in human A-375 cells assessed as accumulation at G0/G1 phase at 8 uM incubated for 24 hrs by PI staining based flow cytometry analysis (reference value: 69.68 %); type: functional
[21] = tested on: B16; assay: Induction of apoptosis in mouse B16 cells assessed as cytoplasmic shrinkage at 5 to 7 uM incubated for 24 hrs by Hoechst 33258 staining based fluorescence microscopy; type: functional, cell-based; conditions: dose 5-7 µM
[22] = tested on: B16; assay: Induction of cell cycle arrest in mouse B16 cells assessed as accumulation at G2/M phase at 6 uM incubated for 24 hrs by PI staining based flow cytometry analysis (reference value: 4.70 %); type: functional
[23] = tested on: A-375; assay: Induction of apoptosis in human A-375 cells assessed as late apoptotic cells at 6 uM after 24 hrs by Annexin-V-FITC/PI-staining based flow cytometry (reference value: 5.7 %); type: functional
[24] = tested on: B16; assay: Cytotoxicity against mouse B16 cells assessed as reduction in cell viability incubated for 24 hrs by MTT assay; type: functional, cell-based; conditions: B16, 24 h
[25] = tested on: A549; assay: Cytotoxicity against human A549 cells assessed as reduction in cell viability by MTT assay; type: functional, cell-based
[26] = tested on: A-375; assay: Induction of apoptosis in human A-375 cells assessed as […] of Bax/Mcl-1 protein level at 6 to 8 uM incubated for 24 hrs by Western blot analysis; type: functional, cell-based; conditions: dose 6-8 µM
[27] = tested on: B16; assay: Induction of apoptosis in mouse B16 cells assessed as early apoptotic cells at 5 uM measured after 24 hrs by Annexin-V-FITC/PI-staining based flow cytometry (reference value: 0.5 %); type: functional
[28] = tested on: B16; assay: Induction of cell cycle arrest in mouse B16 cells assessed as accumulation at G0/G1 phase incubated for 24 hrs in presence of AG490 by PI staining based flow cytometry analysis (reference value: 56.59 %); type: functional
[29] = tested on: A-375; assay: Induction of cell cycle arrest in human A-375 cells assessed as accumulation at G2/M phase incubated for 24 hrs by PI staining based flow cytometry analysis (reference value: 8.87 %); type: functional
[30] = tested on: B16; assay: Inhibition of autophagy in mouse B16 cells harbouring mCherry-EGFP-LC3 assessed as increase in proportion of autolysosomes at 6 uM for 8 to 24 hrs by laser scanning confocal microscopic analysis; type: functional, cell-based; conditions: time 8-24 hrs
[31] = tested on: A-375; assay: Induction of apoptosis in human A-375 cells assessed as early apoptotic cells preincubated for 2 hrs with […] followed by compound addition and measured after 24 hrs by Annexin-V-FITC/PI-staining based flow cytometry (reference value: 3.1 %); type: functional
[32] = tested on: B16; assay: Induction of cell cycle arrest in mouse B16 cells assessed as accumulation at G0/G1 phase at 6 uM incubated for 24 hrs by PI staining based flow cytometry analysis (reference value: 61.83 %); type: functional
[33] = tested on: A-375; assay: Induction of apoptosis in human A-375 cells assessed as early apoptotic cells preincubated for 2 hrs with 3-MA followed by compound addition and measured after 24 hrs by Annexin-V-FITC/PI-staining based flow cytometry (reference value: 3.1 %); type: functional
[34] = tested on: A-375; assay: Induction of cell cycle arrest in human A-375 cells assessed as accumulation at S phase at 8 uM incubated for 24 hrs by PI staining based flow cytometry analysis (reference value: 28.83 %); type: functional

COc1ccc2cc1Oc1ccc(cc1)C[C@H]1c3cc(c(OC)cc3CCN1C)Oc1c(OC)c(OC)c(OC)c3c1[C@H](C2)N(C)CC3 [HERNANDEZINE]
Activity [1]: 22.28% | Activity [2]: 4.78% | Activity [3]: Active | Activity [4]: 72% | Activity [5]: Active | Activity [6]: 20.64% | Activity [7]: Active | Activity [8]: 1.43% | Activity [9]: 23.84% | Activity [10]: 18.2% | Activity [11]: Active | inhibition [12]: Active | Activity [13]: 70.87% | Activity [14]: 17.8% | Activity [15]: 12.63% | Activity [16]: 27.1% | Activity [17]: 47% | Activity [18]: 76.38% | Activity [19]: Active | Activity [20]: 79.56% | Activity [21]: Active | Activity [22]: 3.27% | Activity [23]: 18.9% | IC50 [24]: 5.9 µM | IC50 [25]: 7.59 µM | Activity [26]: Active | Activity [27]: 4.6% | Activity [28]: 84.61% | Activity [29]: 9.5% | inhibition [30]: Active | Activity [31]: 34.8% | Activity [32]: 72.89% | Activity [33]: 10.1% | Activity [34]: 19.2%
